# Measurements reported in ChEMBL document CHEMBL1144991, “Autoradiographic visualization of corticotropin releasing hormone type 1 receptors with a nonpeptide ligand: synthesis of [(76)Br]MJL-1-109-2” (J Med Chem, 2003).
# Target: T1, Corticotropin-releasing factor receptor 1 (Rattus norvegicus, UniProt P35353)
# T1 sequence (P35353 whole entry): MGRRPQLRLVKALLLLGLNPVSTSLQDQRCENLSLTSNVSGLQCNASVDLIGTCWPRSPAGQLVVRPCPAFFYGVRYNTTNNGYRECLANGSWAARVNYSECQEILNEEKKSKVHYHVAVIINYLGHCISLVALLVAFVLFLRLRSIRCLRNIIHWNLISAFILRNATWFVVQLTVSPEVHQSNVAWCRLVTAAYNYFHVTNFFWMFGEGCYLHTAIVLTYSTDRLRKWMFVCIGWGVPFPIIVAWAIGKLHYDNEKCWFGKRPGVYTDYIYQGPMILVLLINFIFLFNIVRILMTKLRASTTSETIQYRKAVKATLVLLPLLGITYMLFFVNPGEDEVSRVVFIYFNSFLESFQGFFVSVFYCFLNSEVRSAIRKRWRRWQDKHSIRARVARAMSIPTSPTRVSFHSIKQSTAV
# Test: Affinity for the Corticotropin releasing factor receptor 1 (CRHR1) was determined in rat brain
# Format: tissue-based
row,Ki [nM],Compound
1,1,CCCCN(CC)c1nc(C)nc2c1c(C)c(C)n2-c1c(C)cc(C)cc1C [ANTALARMIN]
2,1.9,COCCN(CCOC)c1nc(C)nc2c(-c3ccc(Br)cc3Cl)c(C)nn12
